For this test, the target named is Human serum albumin (HSA) (Homo sapiens, UniProt P02768). The test is described as follows: fluorescence quenching titration. The format is binding.
Sequence of Human serum albumin (HSA) (P02768 25-609): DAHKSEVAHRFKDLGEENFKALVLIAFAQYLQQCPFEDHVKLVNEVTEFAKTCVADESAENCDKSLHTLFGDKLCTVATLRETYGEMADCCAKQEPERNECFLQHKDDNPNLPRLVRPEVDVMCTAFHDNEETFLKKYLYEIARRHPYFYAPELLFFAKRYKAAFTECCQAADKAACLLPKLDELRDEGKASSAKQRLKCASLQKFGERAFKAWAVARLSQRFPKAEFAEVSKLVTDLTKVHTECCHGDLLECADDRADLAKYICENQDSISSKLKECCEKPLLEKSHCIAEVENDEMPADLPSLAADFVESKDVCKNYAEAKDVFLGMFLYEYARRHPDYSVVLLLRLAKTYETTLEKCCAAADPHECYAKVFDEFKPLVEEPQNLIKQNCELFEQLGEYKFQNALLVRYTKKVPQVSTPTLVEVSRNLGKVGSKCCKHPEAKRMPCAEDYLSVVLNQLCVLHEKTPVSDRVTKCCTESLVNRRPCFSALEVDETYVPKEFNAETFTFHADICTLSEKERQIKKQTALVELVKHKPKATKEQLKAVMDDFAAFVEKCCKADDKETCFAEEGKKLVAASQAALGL

The Kd is the free concentration of one partner at which half of the binding sites on the other are occupied at equilibrium, for simple one-to-one binding. Lower therefore signals a tighter complex. Turning to `CCCCCCCCc1ccc(CCC(N)(CO)CO)cc1` [Fingolimod], the affinity, expressed as Kd, was 235 µM.

The values are drawn from publication PMC10182447 (BioImpacts : BI, 2022).
